{"source": "paper PMC10651654", "about": "(Clinical and Translational Science, 2023)", "key": {"CYP3A4 [1]": {"tested_on": "CYP3A4", "settings": "ref GastroPlus user manual[10], cited from earlier work"}, "CYP2B6": {"tested_on": "CYP2B6", "settings": "source cell empty, row above: ref GastroPlus user manual[10]; cited from earlier work"}, "[2]": {"test": "PBPK drug-drug interaction simulations", "set-up": "species or system human"}, "[3]": {"test": "Clinical drug-drug interaction studies", "format": "in vivo, human"}, "[4]": {"settings": "cited from earlier work"}, "CYP3A4 [5]": {"biological_target": "T1, CYP3A4 (Homo sapiens, UniProt P08684)", "T1 sequence (P08684 whole entry)": "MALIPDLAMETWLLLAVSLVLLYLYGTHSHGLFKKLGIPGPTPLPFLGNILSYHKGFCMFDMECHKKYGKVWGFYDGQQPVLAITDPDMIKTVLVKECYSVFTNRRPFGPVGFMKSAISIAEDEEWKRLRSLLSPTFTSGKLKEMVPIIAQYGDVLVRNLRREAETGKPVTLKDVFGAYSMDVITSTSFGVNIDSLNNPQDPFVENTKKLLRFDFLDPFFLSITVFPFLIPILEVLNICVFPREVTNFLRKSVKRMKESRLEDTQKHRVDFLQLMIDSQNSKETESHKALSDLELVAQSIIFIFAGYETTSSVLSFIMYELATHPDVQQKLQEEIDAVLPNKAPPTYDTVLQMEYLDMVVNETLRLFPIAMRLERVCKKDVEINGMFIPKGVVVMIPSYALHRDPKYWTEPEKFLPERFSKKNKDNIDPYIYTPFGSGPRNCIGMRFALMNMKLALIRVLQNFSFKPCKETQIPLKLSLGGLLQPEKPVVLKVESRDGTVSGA", "settings": "data on file"}, "BCRP": {"biological_target": "T2, BCRP (Homo sapiens, UniProt Q9UNQ0)", "T2 sequence (Q9UNQ0 1-655)": "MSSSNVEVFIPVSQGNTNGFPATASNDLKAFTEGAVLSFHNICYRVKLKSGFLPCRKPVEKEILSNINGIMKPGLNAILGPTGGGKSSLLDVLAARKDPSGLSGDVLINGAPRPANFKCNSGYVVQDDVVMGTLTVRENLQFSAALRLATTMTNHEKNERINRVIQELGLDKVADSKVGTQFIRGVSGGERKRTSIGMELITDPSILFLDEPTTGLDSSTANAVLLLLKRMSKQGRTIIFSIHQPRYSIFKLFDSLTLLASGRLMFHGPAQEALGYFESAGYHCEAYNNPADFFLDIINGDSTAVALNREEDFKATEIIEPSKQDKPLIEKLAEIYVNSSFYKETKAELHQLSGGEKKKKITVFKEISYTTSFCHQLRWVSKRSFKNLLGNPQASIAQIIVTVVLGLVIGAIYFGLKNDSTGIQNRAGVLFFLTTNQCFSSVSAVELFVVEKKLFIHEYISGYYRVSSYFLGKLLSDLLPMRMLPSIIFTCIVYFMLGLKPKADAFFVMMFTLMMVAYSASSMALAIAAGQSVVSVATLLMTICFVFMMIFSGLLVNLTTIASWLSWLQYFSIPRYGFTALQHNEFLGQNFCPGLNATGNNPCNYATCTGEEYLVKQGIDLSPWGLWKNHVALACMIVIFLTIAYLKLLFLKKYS", "test": "BCRP inhibition in BCRP-transfected cell monolayers", "format": "in vitro ADME"}, "[6]": {"test": "Physicochemical input parameters"}, "[7]": {"test": "Apparent permeability in Caco-2 cells", "format": "in vitro ADME", "settings": "human"}, "[8]": {"settings": "cited from earlier work", "remark": "listed apart in the source"}, "[9]": {"settings": "cited from earlier work", "remark": "listed apart in the source"}, "CYP3A4 [10]": {"biological_target": "T1, CYP3A4", "format": "in vitro ADME", "settings": "percent compound remaining after 60 min in presence of NADPH"}, "other CYP isoforms": {"tested_on": "other CYP isoforms", "test": "In vitro metabolism of [14C]-ziritaxestat by CYP isoforms", "format": "in vitro ADME", "settings": "human, CYP isoforms other than CYP3A4, 60 min"}, "CYP2C8": {"biological_target": "T3, CYP2C8 (Homo sapiens, UniProt P10632)", "T3 sequence (P10632 1-490)": "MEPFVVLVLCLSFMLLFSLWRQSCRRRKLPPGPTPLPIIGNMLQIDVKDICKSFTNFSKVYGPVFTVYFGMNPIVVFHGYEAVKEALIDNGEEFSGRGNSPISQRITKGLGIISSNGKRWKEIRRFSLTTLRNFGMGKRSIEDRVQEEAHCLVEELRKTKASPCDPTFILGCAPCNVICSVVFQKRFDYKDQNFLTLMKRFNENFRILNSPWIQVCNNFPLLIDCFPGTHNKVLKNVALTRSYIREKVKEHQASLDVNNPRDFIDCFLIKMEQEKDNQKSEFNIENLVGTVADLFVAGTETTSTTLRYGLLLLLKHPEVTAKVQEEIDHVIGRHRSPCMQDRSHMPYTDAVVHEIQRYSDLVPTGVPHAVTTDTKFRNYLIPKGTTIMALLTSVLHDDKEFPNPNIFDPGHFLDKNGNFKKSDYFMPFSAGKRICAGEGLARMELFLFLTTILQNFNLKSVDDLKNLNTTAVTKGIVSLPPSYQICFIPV", "test": "CYP2C8 inhibition", "format": "in vitro ADME"}, "P-gp": {"biological_target": "P-gp (Homo sapiens, UniProt P08183)", "sequence (P08183 whole entry)": "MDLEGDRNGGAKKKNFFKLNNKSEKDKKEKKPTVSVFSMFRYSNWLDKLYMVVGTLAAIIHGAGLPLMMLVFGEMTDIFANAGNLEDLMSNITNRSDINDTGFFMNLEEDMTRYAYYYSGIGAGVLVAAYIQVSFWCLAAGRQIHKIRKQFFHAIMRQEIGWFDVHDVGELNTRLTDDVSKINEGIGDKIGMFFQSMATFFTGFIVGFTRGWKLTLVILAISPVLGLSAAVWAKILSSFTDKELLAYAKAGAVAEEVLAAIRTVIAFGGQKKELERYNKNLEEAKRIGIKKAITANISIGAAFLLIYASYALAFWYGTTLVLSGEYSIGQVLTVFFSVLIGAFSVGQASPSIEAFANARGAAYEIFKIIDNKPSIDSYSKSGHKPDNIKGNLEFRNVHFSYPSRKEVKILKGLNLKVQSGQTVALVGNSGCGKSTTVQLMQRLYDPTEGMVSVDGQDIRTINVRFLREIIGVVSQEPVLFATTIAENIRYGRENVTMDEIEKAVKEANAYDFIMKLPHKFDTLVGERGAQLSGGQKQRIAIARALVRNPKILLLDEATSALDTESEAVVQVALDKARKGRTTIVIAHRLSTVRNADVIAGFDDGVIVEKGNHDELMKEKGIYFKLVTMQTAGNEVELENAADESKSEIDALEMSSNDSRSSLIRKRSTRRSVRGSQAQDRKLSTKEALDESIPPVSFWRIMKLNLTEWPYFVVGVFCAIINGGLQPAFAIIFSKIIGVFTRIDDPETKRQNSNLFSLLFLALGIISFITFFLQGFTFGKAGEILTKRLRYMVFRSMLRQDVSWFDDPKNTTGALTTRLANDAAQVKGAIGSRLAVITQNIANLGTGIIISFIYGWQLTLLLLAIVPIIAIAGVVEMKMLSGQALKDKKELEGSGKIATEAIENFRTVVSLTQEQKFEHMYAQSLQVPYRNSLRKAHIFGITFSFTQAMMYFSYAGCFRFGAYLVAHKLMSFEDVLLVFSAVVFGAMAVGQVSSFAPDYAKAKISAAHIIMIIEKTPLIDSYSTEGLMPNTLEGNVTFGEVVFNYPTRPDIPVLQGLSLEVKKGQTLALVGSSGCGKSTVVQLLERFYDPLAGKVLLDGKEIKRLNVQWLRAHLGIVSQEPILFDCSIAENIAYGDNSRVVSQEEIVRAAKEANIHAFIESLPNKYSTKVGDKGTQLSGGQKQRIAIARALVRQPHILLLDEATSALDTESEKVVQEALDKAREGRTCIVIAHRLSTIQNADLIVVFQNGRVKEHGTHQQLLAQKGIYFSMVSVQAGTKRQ", "test": "P-gp inhibition in P-gp-transfected cell monolayers", "format": "in vitro ADME"}, "OATP1B3": {"biological_target": "T4, OATP1B3 (Homo sapiens, UniProt Q9NPD5)", "T4 sequence (Q9NPD5 1-702)": "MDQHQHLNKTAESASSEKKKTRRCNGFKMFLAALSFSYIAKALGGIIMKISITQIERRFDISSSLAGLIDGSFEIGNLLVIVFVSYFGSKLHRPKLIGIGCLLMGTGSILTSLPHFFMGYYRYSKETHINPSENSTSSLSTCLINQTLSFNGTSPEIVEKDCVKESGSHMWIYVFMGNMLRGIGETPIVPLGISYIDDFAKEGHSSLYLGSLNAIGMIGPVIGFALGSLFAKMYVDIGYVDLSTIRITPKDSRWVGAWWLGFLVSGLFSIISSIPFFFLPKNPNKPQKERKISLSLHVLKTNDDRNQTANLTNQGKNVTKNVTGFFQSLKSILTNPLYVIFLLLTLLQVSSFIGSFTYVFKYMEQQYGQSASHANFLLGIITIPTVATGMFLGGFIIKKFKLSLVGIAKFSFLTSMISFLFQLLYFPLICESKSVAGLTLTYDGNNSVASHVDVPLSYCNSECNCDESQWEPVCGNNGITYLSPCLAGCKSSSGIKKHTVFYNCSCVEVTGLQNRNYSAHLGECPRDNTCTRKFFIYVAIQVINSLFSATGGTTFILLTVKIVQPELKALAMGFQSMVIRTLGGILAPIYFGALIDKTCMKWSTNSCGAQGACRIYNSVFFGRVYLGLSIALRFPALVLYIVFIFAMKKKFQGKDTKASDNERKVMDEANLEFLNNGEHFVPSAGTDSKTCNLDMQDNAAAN", "test": "OATP1B3 inhibition", "format": "in vitro ADME"}, "CYP2C9": {"biological_target": "CYP2C9 (Homo sapiens, UniProt P11712)", "sequence (P11712 whole entry)": "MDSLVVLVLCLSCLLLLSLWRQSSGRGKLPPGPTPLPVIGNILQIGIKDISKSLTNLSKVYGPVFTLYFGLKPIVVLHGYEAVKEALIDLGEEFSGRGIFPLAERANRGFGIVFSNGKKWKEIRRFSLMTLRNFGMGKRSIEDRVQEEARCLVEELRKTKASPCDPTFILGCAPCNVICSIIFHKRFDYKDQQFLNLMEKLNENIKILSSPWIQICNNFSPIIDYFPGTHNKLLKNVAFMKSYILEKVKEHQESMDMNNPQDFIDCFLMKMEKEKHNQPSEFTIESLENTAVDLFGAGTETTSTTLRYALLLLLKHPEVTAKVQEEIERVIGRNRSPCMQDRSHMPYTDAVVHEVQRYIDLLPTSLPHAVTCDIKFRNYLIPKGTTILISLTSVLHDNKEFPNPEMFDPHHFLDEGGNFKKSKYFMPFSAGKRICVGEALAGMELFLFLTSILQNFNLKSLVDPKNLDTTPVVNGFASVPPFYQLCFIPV", "test": "CYP2C9 inhibition", "format": "in vitro ADME"}, "CYP3A4 [11]": {"biological_target": "T1, CYP3A4", "test": "biochemical", "format": "in vitro ADME"}, "PBPK model": {"test": "PBPK model", "settings": "human, oral, 600 mg"}, "OATP1B1": {"biological_target": "T5, OATP1B1 (Homo sapiens, UniProt Q9Y6L6)", "T5 sequence (Q9Y6L6 1-691)": "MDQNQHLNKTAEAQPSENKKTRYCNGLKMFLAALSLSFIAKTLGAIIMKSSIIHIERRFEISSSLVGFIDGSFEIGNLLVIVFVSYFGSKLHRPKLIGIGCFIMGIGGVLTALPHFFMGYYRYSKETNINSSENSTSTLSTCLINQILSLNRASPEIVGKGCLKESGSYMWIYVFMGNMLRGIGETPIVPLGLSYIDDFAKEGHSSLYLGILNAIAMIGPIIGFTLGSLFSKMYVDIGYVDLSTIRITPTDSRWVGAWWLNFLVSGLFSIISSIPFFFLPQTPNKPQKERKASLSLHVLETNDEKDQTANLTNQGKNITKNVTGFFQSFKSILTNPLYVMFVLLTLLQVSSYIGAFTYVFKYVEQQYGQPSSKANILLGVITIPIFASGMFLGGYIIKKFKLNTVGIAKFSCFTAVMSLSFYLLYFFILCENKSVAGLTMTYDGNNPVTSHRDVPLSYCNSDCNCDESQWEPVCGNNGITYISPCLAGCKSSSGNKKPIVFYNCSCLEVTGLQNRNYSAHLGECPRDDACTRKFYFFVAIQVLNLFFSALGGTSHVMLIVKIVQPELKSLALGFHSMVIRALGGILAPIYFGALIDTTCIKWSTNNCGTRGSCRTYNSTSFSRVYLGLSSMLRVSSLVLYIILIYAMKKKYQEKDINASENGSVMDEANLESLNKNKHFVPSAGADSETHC", "test": "OATP1B1 inhibition", "format": "in vitro ADME"}, "[12]": {"settings": "pravastatin probe verification, interaction with gemfibrozil (OATP1B1 inhibitor)"}}, "note": "Read-outs that look alike come from different tables or passages of the source.", "data": [{"smiles": "O=C1Nc2ccc(Cl)cc2[C@@](C#CC2CC2)(C(F)(F)F)O1", "note": "[Efavirenz]", "values": [{"measurement": "EC50", "setting": "CYP3A4 [1]; read-out: EC50 induction CYP3A4", "value": "[…]"}, {"measurement": "Emax induction CYP3A4", "setting": "CYP3A4 [1]", "value": "[…]"}, {"measurement": "Emax induction CYP2B6", "setting": "CYP2B6", "value": 5.76}]}, {"smiles": "CC(=O)N1CCN(c2ccc(OCC3COC(Cn4ccnc4)(c4ccc(Cl)cc4Cl)O3)cc2)CC1", "note": "(stereo not shown) [Ketoconazole]", "values": [{"measurement": "observed-to-predicted AUC ratio", "setting": "[2]; efavirenz verification with ketoconazole as victim", "value": 0.90}]}, {"smiles": "COC(=O)c1ccc2c(c1)NC(=O)/C2=C(\\Nc1ccc(N(C)C(=O)CN2CCN(C)CC2)cc1)c1ccccc1", "note": "[Nintedanib, nintedanib]", "values": [{"measurement": "increase in nintedanib exposure with ziritaxestat", "setting": "[3]; clinical DDI study, data on file", "value": "approximately two‐fold"}, {"measurement": "reduction of nintedanib exposure by pirfenidone", "setting": "[4]", "value": 1.5, "unit": "fold"}, {"measurement": "contribution of CYP3A4 to metabolism", "setting": "CYP3A4 [5]", "value": "~ 7%"}]}, {"smiles": "CC[C@H](C)C(=O)O[C@H]1C[C@H](O)C=C2C=C[C@H](C)[C@H](CC[C@@H](O)C[C@@H](O)CC(=O)O)[C@H]21", "note": "[Pravastatin, pravastatin]", "values": [{"measurement": "observed-to-predicted AUC ratio", "setting": "[2]; [12]", "value": 1.03}, {"measurement": "observed-to-predicted Cmax ratio", "setting": "[2]; [12]", "value": 1.10}]}, {"smiles": "CCc1nc2c(C)cc(N3CCN(CC(=O)N4CC(O)C4)CC3)cn2c1N(C)c1nc(-c2ccc(F)cc2)c(C#N)s1", "note": "[Ziritaxestat, ziritaxestat]", "values": [{"measurement": "IC50", "setting": "BCRP", "value": "> 40", "unit": "µM"}, {"measurement": "solubility", "setting": "[6]; FaSSIF", "value": 540, "unit": "µg/mL"}, {"measurement": "solubility", "setting": "[6]; buffer, pH 7.5, aqueous buffer", "value": 66, "unit": "µg/mL"}, {"measurement": "logD", "setting": "[6]; octanol/water, pH 8.25", "value": 3.81}, {"measurement": "pKa", "setting": "[6]; pKa1 (base)", "value": 4.99}, {"measurement": "pKa", "setting": "[6]; pKa2 (base)", "value": 5.89}, {"measurement": "classification as CYP3A4 substrate", "setting": "[3]; human, in vivo", "value": "moderately sensitive CYP3A4 substrate"}, {"measurement": "AUC0–∞ ratio, observed DDI ratio", "setting": "[3]; ziritaxestat 600 mg SD with/without voriconazole 800 mg SD, data on file", "value": 4.0}, {"measurement": "Papp", "setting": "[7]", "value": 47, "unit": "×10⁻⁶ cm/s"}, {"measurement": "fraction absorbed", "setting": "[8]; 600 mg dose", "value": "at least 86%"}, {"measurement": "hepatic first-pass metabolism", "setting": "[8]", "value": 9, "unit": "%"}, {"measurement": "volume of distribution at steady state from observed data, mean [SD]", "setting": "[8]", "value": "23 [11] L"}, {"measurement": "renal excretion of total radioactivity", "setting": "[8]; single p.o. 600 mg [14C]-ziritaxestat, healthy male subjects", "value": "< 7", "unit": "%"}, {"measurement": "mortality (in words)", "setting": "[9]; 200 mg and 600 mg daily doses vs placebo", "value": "increased mortality compared with placebo"}, {"measurement": "efficacy in IPF (in words)", "setting": "[9]; 200 mg and 600 mg daily doses", "value": "failed to demonstrate efficacy"}, {"measurement": "[14C]-ziritaxestat metabolized by CYP3A4", "setting": "CYP3A4 [10]; 10 μM", "value": 84.5, "unit": "%"}, {"measurement": "[14C]-ziritaxestat metabolized by CYP3A4", "setting": "CYP3A4 [10]; 100 μM", "value": 28.6, "unit": "%"}, {"measurement": "contribution of other CYP isoforms to metabolism (maximum)", "setting": "other CYP isoforms", "value": "≤ 2.1", "unit": "%"}, {"measurement": "Ki", "setting": "CYP2C8", "value": 0.753, "unit": "µM"}, {"measurement": "time-dependent inhibition of CYP2C8 (in words)", "setting": "CYP2C8", "value": "strong"}, {"measurement": "fraction unbound", "setting": "CYP2C8; human", "value": 0.52}, {"measurement": "IC50", "setting": "P-gp", "value": "> 40", "unit": "µM"}, {"measurement": "IC50", "setting": "OATP1B3", "value": 7.04, "unit": "µM"}, {"measurement": "IC50", "setting": "CYP2C9", "value": 13.1, "unit": "µM"}, {"measurement": "fraction unbound", "setting": "CYP2C9; human", "value": 0.24}, {"measurement": "IC50", "setting": "CYP3A4 [11]", "value": 3.7, "unit": "µM"}, {"measurement": "Papp", "setting": "PBPK model", "value": 120, "unit": "×10⁻⁶ cm/s"}, {"measurement": "inhibitory potential for OATP1B1 (in words)", "setting": "OATP1B1", "value": "weak"}]}]}
